From patent publication US10010492B2, “Methods and compositions for treating skin to resolve inflammation and screening for actives that stimulate pro-resolution pathways” (ELC Management LLC, priority 2015, dated 2018) come the findings set out here.

The test system of assay [1] is Pro-Resolving Lipid Mediator Markers 15-HETE, 12-HETE, 14-HDOHE, 18-HEPE, and 17-HDOHE. The assay can be described thus: Pro-Resolving Lipid Mediator Markers in the aggregate, PMA/A23187-stimulated neutrophils, LC-MS/MS. It counts as cell-based, human. The procedure:
(§1) Ingredients were tested to assess the ability to promote Pro-Resolution Pathway Stimulators in human neutrophils. The following Inflammatory Metabolites were measured:
(§2) PGE2 and LTB4. The Inflammatory Metabolite Marker, 5-HETE, was measured. Also measured were the Pro-Resolving Lipid Mediator Markers 15-HETE, 12-HETE, 14-HDOHE, 18-HEPE, and 17-HDOHE. PGE2, LTB4, and 5-HETE are indicators of inflammation. Increases in cellular secretion of PGE2, LTB4, or 5-HETE are seen in response to inflammation precipitating conditions. Active ingredients that cause a reduction in cellular concentration of PGE2, LTB4, or 5-HETE are anti-inflammatory in nature. Cellular secretion of Pro-Resolving Lipid Mediators occurs in the inflammation resolution phase. Active ingredients that stimulate cellular secretion of Pro-Resolving Lipid Mediators (as measured by measuring Pro-Resolving Lipid Mediator Markers) help to promote resolution of inflammation.
(§3) Then, the inflammatory response was initiated by adding an inflammation precipitating ingredient, in particular PMA/[…] which is a mixture of 5-(methylamino)-2-({(2R,3R,6S,8S,9R,11R)-3,9,11-trimethyl-8-[(1S)-1-methyl-2-oxo-2-(1H-pyrrol-2-yl)ethyl]-1,7-dioxaspiro[5.5]undec-2-yl}methyl)-1,3-benzoxazole-4-carboxylic acid and PMA (phorbol myristate acetate), at a concentration of 0.05 μm and 1 μm respectively to each well. After one hour the supernatants were collected and stored at −80° C. until assayed.
(§4) Cell supernatants were assayed for Inflammatory Metabolites (PGE2, LBT4), Inflammatory Metabolite Markers (5-HETE), and Pro-Resolving Lipid Mediator Markers 15-HETE, 12-HETE, 14-HDOHE, 18-HEPE, and 17-HDOHE. More specifically, analysis was performed by extraction using an Oasis HLB 96-well plate (Waters) according to manufacturer's directions.
(§5) Suitable Pro-Resolving Activators are ingredients that show an increase in cellular concentration of Pro-Resolving Lipid Mediator Markers 15-HETE, 12-HETE, 14-HDOHE, 18-HEPE, and 17-HDOHE alone or in combination, when cells exposed to an inflammation precipitating condition either before or after exposure to the active.

For assay [2], the system named is Inflammatory Metabolites (PGE2, LTB4) and Inflammatory Metabolite Marker (5-HETE). The assay can be described thus: Inflammatory Metabolites and Inflammatory Metabolite Markers in the aggregate, PMA/A23187-stimulated neutrophils, LC-MS/MS. In kind it is cell-based, human. The following applies: for net decrease in cellular concentration of Inflammatory Metabolites and Inflammatory Metabolite Markers vs control: human neutrophils pre-treated 24 h, then PMA/A23187. The procedure:
as §1, §2, §3, §4, §5

In the case of `Oc1ccc(C=Cc2cc(O)cc(O)c2)cc1` [resveratrol], the “% change of Pro-Resolving Lipid Mediator Markers in the aggregate compared to control” value is listed as −27% in assay [1] (0.1 ug/ml), −16% in assay [1] (1 ug/ml) and −10% in assay [1] (10 ug/ml). Besides, the “decrease in Inflammatory Metabolites and Markers in the aggregate vs control” value amounted to 45% in assay [2] (0.1 ug/ml), 59% in assay [2] (1 ug/ml) and 106% in assay [2] (10 ug/ml).
For `O=C(O)c1ccccc1O` [salicylic acid], the “change in cellular concentration of Pro-Resolving Lipid Mediators vs control” value in assay [1] (0.33 ug/ml) is “small increase”. Further, the “change in cellular concentration of all Pro-Resolving Lipid Mediator Markers in the aggregate vs control” value in assay [1] (3.3 μg/ml) and in assay [1] (33 μg/ml) was “decreased” in each case. Besides, the “net decrease in cellular concentration of Inflammatory Metabolites and Inflammatory Metabolite Markers vs control” value in assay [2] (0.33 μg/ml, aggregate of PGE2, LTB4, 5-HETE) is 29%; in assay [2] (3.3 μg/ml, aggregate) it was 58%; in assay [2] (33 μg/ml, aggregate), 46%.
On to resveratrol salicylate, for which the “increase in cellular concentration of Pro-Resolving Lipid Mediator Markers in the aggregate” value in assay [1] (0.43 ug/ml) was “not being as effective”; in assay [1] (4.3 ug/ml) it was 4%; in assay [1] (43 ug/ml), 37%. The figures for the “decrease in Inflammatory Metabolites and Inflammation Metabolite Markers in the aggregate vs control” value in assay [2] (0.43 ug/ml), in assay [2] (4.3 ug/ml) and in assay [2] (43 ug/ml) were 87%, 163% and 257%, respectively.
